Test results published in US9763904B2, “Position-specific asymmetric deuterium enriched catecholamine derivatives and medicaments comprising said compounds” (Teva Pharmaceuticals International GmbH, priority 2013, dated 2017).
Entries after “also recorded” stand apart in the source; their conditions may differ. Like-named read-outs stand apart in the source and are kept apart here.

Legend:
[1] = tested on: 6-hydroxydopamine (6-OHDA) rodent model of Parkinson's disease; test: Drug induced contralateral rotations (anti-Parkinson effect, motor performance) in unilaterally 6-OHDA lesioned rats; assay type: in vivo, Sprague-Dawley rats; details: 6-OHDA rats; for effect on motor performance (in words): comparison between test items; for Motor Effect [% of L-DOPA effect]: at equipotent dose, contralateral rotations; for Equipotent Dose [% of L-DOPA dose]: dose causing the same effect on motor performance as L-DOPA
[2] = tested on: 6-hydroxydopamine (6-OHDA) rodent model of Parkinson's disease; test: Dyskinesia: scoring of abnormal involuntary movements (limb, axial, orolingual) after repeated treatment in 6-OHDA lesioned rats; assay type: in vivo, Sprague-Dawley rats
Excerpt: The effects on motor performance and the development of dyskinesia following administration of deuterated L-DOPA derivatives with different deuterium enrichment at specific position of the side chain have been compared among each other and to L-DOPA in the 6-hydroxydopamine (6-OHDA) rodent model of Parkinson's disease.
Female Sprague-Dawley rats weighing approximately 225 g were housed on a 12-hour light/dark cycle and kept on standard laboratory diet and water ad libitum. The rats were lesioned by unilateral injection of the neurotoxin 6-OHDA. The lesion was validated by measuring the rotational activity after i.p. injection of 2.5 mg/kg D-amphetamine.
Dyskinesia was evaluated after repeated treatment by scoring the animals for abnormal involuntary movements. The rats were scored, by an observer blinded to the experimental design for limb, axial and orolingual involuntary movements.
The equipotent dose as percent of L-DOPA dose that caused the same effect on motor performance and dyskinesia observed following repeated administration of these doses is shown in Table 2.

striatal dopamine = details: compared to L-DOPA, prior art, cited from earlier work
Parkinson models = details: cited from earlier work
[3] = 6-OHDA rats, repeated administration, equipotent dose
[4] = repeated administration of equipotent doses, 6-OHDA rats
[5] = female, Sprague-Dawley, rat, in vivo

Row | Dyskinesia [% of dyskinesia caused by L-DOPA] [2, 5] | Molecule | effect on motor performance (in words) [1] | Motor Effect [% of L-DOPA effect] [1] | Equipotent Dose [% of L-DOPA dose] [1] | dyskinesia at equipotent dose (in words) [2, 3] | Dyskinesia [% of dyskinesia caused by L-DOPA] [2, 4] | dyskinesia at equipotent dose (in words) ([2]; rat, in vivo) | striatal dopamine levels / output (in words) (striatal dopamine; listed as α, β,β-D3-L-DOPA) | striatal dopamine levels / output (in words) (striatal dopamine; listed as α,β,β-D3-L-DOPA) | equi-effective dose compared to L-DOPA (Parkinson models; Parkinson models, literature) | motor activity (in words) (Parkinson models; compared to L-DOPA, several Parkinson models) | striatal dopamine levels / output (in words) (striatal dopamine; listed as α, β-D2-L-DOPA)
1 |  | L-2-amino-2,3,3*-trideutero-3-(3,4-dihydroxyphenyl) propionic acid [Test Item D] | motor effect equivalent to the di-deuterated α, β-D2-L-DOPA [B] | 100% of L-DOPA effect | 35% of L-DOPA dose | reduction of dyskinesia as the triple-deuterated α, β, β-D3-L-DOPA [C] | 50% of dyskinesia caused by L-DOPA |  |  |  |  |  | 
2 | 50% of dyskinesia caused by L-DOPA | [2H]C([2H])(c1ccc(O)c(O)c1)[C@]([2H])(N)C(=O)O [Test Item C, L-2-amino-2,3,3-trideutero-3-(3,4-dihydroxyphenyl) propionic acid] |  | 100% of L-DOPA effect | 60% of L-DOPA dose |  |  | significantly less dyskinesia than L-DOPA | increase and prolong the output of striatal dopamine significantly more than L-DOPA | higher longer-lasting striatal dopamine levels than L-DOPA | about 60% | improved motor activity compared to L-DOPA | 
3 |  | [2H][C@@H](c1ccc(O)c(O)c1)[C@]([2H])(N)C(=O)O [Test Item B, S/S-2-amino-2,3-dideutero-3-(3,4-dihydroxyphenyl) propionic acid] | significantly greater compared to α, β, β-D3-L-DOPA [C] and L-DOPA [A] | 100% of L-DOPA effect | 30% of L-DOPA dose | not reduced in comparison to L-DOPA | 100% of dyskinesia caused by L-DOPA |  |  |  |  |  | increase and prolong the output of striatal dopamine significantly more than L-DOPA; also recorded: highest striatal dopamine concentrations
4 | 100% of dyskinesia caused by L-DOPA | N[C@@H](Cc1ccc(O)c(O)c1)C(=O)O [Test Item A, L-2-amino-3-(3,4-dihydroxyphenyl) propionic acid] |  | 100% of L-DOPA effect | 100% of L-DOPA dose |  |  |  |  |  |  |  | 
